Where two headings read alike, the source gives them in different places.
How the values were obtained:
[1] = for packing density: Hosokawa machine, 180 gravity drops
[2] = for flowability index: Carr method: compressibility, angle of repose, spatula angle, cohesion
Experimental: The flowability index is calculated by the Carr method (R. Carr: Chemical Engineering, Jan. 18, 1965, page 163-168) and takes into account the results of four experimental values: compressibility, angle of repose, spatula angle and cohesion.

[3] = as indicated in EP 708 103; cited from earlier work
[4] = brick habit versus acicular habit

**Q.** What does the source list for CCCCC1=NC2(CCCC2)C(=O)N1Cc1ccc(-c2ccccc2-c2nnn[nH]2)cc1 [irbesartan crystals in the brick habit, 2-n-butyl-4-spirocyclopentane-1-[(2′-(tetrazol-5-yl)biphenyl-4-yl)methyl]-2-imidazolin-5-one]?
**A.** packing density ([1]; listed as irbesartan crystals having the new crystal habit): about 0.5 kg m^3; increase in the packing density with respect to the acicular habit [1, 4]: 50%; flowability index ([2]; listed as crystals of brick habit): about 30; increase in the flowability index with respect to the acicular habit [2, 4]: 50%

**Q.** Which “stability and hygroscopicity of the crystals” value [3] does the source give for CCCCC1=NC2(CCCC2)C(=O)N1Cc1ccc(-c2ccccc2-c2nnn[nH]2)cc1 [crystals of irbesartan in acicular form A] [2-n-butyl-4-spirocyclopentane-1-[(2′-(tetrazol-5-yl)biphenyl-4-yl)methyl]-2-imidazolin-5-one, reference compound] here?
**A.** stable, non-hygroscopic

**Q.** What about the packing density ([1]; listed as crystals of the acicular form A) of the same compound?
**A.** about 0.35 kg/M^3

**Q.** What about the flowability index ([2]; listed as crystals of acicular habit) of the same compound?
**A.** about 10
